Assay results as given in ChEMBL document CHEMBL3124815, “Discovery of a selective kinase inhibitor (TAK-632) targeting pan-RAF inhibition: design, synthesis, and biological evaluation of C-7-substituted 1,3-benzothiazole derivatives” (J Med Chem, 2013).

How the values were obtained:
[1] = Inhibition of NRASQ61k/BRAFG469V-mutant in human HMVII cells assessed as phosphorylation of ERK after 2 hrs by Western blotting analysis; format: cell-based
[2] = system: A-375; assay: Antitumor activity against human A375 cells expressing BRAF V600E mutant xenografted in F344 nude rat assessed as reduction in tumor size at 3.9 mg/kg, po bid for 14 days relative to control; format: functional
[3] = Mean residence time in dog at 10 mg/kg, po; format: ADME, organism-based, Canis lupus familiaris; parameters: dose 10 mg/kg, route oral; details: in vivo
[4] = AUC (0 to 24 hrs) in rat at 1 mg/kg, iv; format: ADME, organism-based; parameters: time < 24 hr, dose 1 mg/kg, route intravenous; details: plasma
[5] = molecular target: T1, RAF proto-oncogene serine/threonine-protein kinase (Homo sapiens, UniProt P04049); assay: Competitive inhibition of CRAF (unknown origin) in presence of 0.5 uM ATP by ELISA
[6] = molecular target: Aurora kinase B (Homo sapiens, UniProt Q96GD4); assay: Inhibition of N-terminal His-6-tagged Aurora kinase B (unknown origin) expressed in baculovirus system after 60 mins
[7] = Mean residence time in rat at 1 mg/kg, iv; format: ADME, organism-based; parameters: dose 1 mg/kg, route intravenous; details: in vivo
[8] = AUC (0 to 24 hrs) in dog at 10 mg/kg, po; format: ADME, organism-based, Canis lupus familiaris; parameters: time < 24 hr, dose 10 mg/kg, route oral; details: plasma
[9] = molecular target: Mitogen-activated protein kinase 14 (Homo sapiens, UniProt Q16539); assay: Inhibition of C-terminal FLAG-tagged p38 alpha (unknown origin) expressed in baculovirus system using MBP as substrate after 60 mins
[10] = molecular target: CDK2/Cyclin A2 (Homo sapiens, UniProt P24941); assay: Inhibition of CDK2/CycA (unknown origin) using histone H1 as substrate after 20 mins; format: protein-complex assay
[11] = molecular target: T1, RAF proto-oncogene serine/threonine-protein kinase; assay: Inhibition of N-terminal FLAG-tagged wild type C-RAF (unknown origin) expressed in baculovirus system using GST-MEK1(K96R) as substrate after 20 mins
[12] = molecular target: Serine/threonine-protein kinase B-raf (Homo sapiens, UniProt P15056); assay: Binding affinity to BRAF (unknown origin) assessed as equilibrium dissociation constant by surface plasmon resonance analysis
[13] = organism: Homo sapiens; assay: Selectivity factor, ratio of IC50 for VEGFR2 (unknown origin) to IC50 for N-terminal FLAG-tagged recombinant BRAF-V600E (unknown origin) expressed in baculovirus system
[14] = Volume of distribution at steady state in rat at 1 mg/kg, iv; format: ADME, organism-based; parameters: dose 1 mg/kg, route intravenous; details: in vivo, read-out: Vdss
[15] = system: Mus musculus; assay: AUC (0 to 8 hrs) in mouse at 10 mg/kg, po; format: ADME, organism-based, Blood; parameters: time < 8 hr, dose 10 mg/kg, route oral; details: in vivo
[16] = molecular target: T2, Serine/threonine-protein kinase B-raf (Homo sapiens, UniProt P15056, V600E); assay: Inhibition of BRAF V600E mutant in human HT-29 cells assessed as phosphorylation of MEK; format: cell-based
Target sequence in this assay (P15056 2-766 V600E limits assumed): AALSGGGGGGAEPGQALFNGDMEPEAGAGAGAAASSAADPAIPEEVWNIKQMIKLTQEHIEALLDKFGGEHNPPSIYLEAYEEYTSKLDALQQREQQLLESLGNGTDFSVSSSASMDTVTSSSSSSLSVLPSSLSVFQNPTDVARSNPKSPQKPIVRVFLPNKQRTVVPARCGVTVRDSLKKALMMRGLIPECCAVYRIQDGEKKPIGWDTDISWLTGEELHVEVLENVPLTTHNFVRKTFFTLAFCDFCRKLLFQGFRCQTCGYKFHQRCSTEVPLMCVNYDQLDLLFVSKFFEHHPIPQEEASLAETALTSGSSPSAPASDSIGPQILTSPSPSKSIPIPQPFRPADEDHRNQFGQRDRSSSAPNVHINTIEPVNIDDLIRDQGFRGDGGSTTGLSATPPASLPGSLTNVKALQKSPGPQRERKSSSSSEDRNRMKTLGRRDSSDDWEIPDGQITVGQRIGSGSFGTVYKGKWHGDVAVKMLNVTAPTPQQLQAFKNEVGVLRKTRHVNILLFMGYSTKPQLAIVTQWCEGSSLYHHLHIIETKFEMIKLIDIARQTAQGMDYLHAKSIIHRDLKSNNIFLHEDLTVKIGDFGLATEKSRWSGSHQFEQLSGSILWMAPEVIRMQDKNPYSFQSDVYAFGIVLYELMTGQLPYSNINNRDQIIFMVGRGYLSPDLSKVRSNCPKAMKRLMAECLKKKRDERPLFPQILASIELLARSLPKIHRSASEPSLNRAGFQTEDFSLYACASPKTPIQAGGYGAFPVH

[17] = Inhibition of NRASQ61k/BRAFG469V-mutant in human HMVII cells assessed as phosphorylation of MEK after 2 hrs by Western blotting analysis; format: cell-based
[18] = molecular target: T1, RAF proto-oncogene serine/threonine-protein kinase; assay: Inhibition of CRAF (unknown origin) compound preincubated for 1 hr in presence of 0.5 uM ATP
[19] = molecular target: T2, Serine/threonine-protein kinase B-raf; assay: Inhibition of BRAF V600E mutant (unknown origin) compound preincubated for 1 hr in presence of 5 uM ATP
Target sequence in this assay (P15056 2-766 V600E limits assumed): as above

[20] = Antitumor activity against human HMVII cells expressing NRAS Q61K/BRAF G469V mutant xenografted in F344 nude rat assessed as reduction in tumor size at 24.1 mg/kg, po bid for 14 days relative to control; format: functional, HMV-2
[21] = molecular target: Mitogen-activated protein kinase 3 (Homo sapiens, UniProt P27361); assay: Inhibition of C-terminal FLAG-tagged ERK1 expressed in baculovirus system (unknown origin) using MBP as substrate after 60 mins
[22] = molecular target: T2, Serine/threonine-protein kinase B-raf
Target sequence in this assay (P15056 whole entry V600E): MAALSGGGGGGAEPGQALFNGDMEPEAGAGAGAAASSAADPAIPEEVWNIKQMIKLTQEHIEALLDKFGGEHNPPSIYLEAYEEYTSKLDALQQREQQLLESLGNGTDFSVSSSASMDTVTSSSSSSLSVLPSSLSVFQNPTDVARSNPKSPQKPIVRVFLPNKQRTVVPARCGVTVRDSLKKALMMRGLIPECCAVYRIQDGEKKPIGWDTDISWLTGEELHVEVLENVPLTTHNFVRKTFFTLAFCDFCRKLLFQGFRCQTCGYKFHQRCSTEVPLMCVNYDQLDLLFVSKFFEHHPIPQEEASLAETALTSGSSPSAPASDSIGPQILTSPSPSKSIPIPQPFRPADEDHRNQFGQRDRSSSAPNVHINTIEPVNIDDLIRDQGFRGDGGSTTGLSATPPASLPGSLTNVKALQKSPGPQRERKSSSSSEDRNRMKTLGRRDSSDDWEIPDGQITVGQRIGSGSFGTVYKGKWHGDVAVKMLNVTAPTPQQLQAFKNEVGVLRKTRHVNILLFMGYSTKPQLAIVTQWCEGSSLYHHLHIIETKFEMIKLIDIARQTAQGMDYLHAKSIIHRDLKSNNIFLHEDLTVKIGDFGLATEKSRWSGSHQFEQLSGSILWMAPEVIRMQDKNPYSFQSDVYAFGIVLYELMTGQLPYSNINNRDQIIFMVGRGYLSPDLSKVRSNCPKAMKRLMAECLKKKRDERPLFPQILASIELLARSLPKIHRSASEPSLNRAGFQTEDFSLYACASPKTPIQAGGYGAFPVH

[23] = molecular target: T2, Serine/threonine-protein kinase B-raf; assay: Inhibition of BRAF V600E mutant (unknown origin) compound preincubated for 1 hr in presence of 1000 uM ATP
Target sequence in this assay (P15056 2-766 V600E limits assumed): as the sequence (P15056 2-766 V600E limits assumed) above

[24] = system: Rattus norvegicus; assay: Toxicity in F344 nude rat xenografted with human A375 cells expressing BRAF V600E mutant assessed as body weight change at 3.9 mg/kg, po bid for 14 days relative to control; format: organism-based, A-375; parameters: dose 3.9 mg/kg, route oral; details: in vivo, 336 h
[25] = system: Rattus norvegicus; assay: Toxicity in F344 nude rat xenografted with human A375 cells expressing BRAF V600E mutant assessed as body weight change at 1.9 mg/kg, po bid for 14 days relative to control; format: organism-based, A-375; parameters: dose 1.9 mg/kg, route oral; details: in vivo, 336 h
[26] = Antitumor activity against human HMVII cells expressing NRAS Q61K/BRAF G469V mutant xenografted in F344 nude rat assessed as reduction in tumor size at 3.9 mg/kg, po bid for 14 days relative to control; format: functional, HMV-2
[27] = Oral bioavailability in dog at 10 mg/kg; format: ADME, organism-based, Canis lupus familiaris; details: in vivo
[28] = AUC (0 to 24 hrs) in rat at 25 mg/kg, po; format: ADME, organism-based; parameters: time < 24 hr, dose 25 mg/kg, route oral; details: plasma
[29] = molecular target: T2, Serine/threonine-protein kinase B-raf; assay: Inhibition of BRAF V600E mutant in human A375 cells assessed as phosphorylation of ERK after 2 hrs by Western blotting analysis; format: cell-based, A-375
Target sequence in this assay (P15056 2-766 V600E limits assumed): as above

[30] = molecular target: T1, RAF proto-oncogene serine/threonine-protein kinase
Description: Binding affinity to CRAF (unknown origin) assessed as dissociation half life by surface plasmon resonance analysis

[31] = molecular target: T1, RAF proto-oncogene serine/threonine-protein kinase; assay: Inhibition of CRAF (unknown origin) compound preincubated for 1 hr in presence of 1000 uM ATP
[32] = system: A-375; assay: Antitumor activity against human A375 cells expressing BRAF V600E mutant xenografted in F344 nude rat assessed as reduction in tumor size at 9.7 mg/kg, po bid for 14 days relative to control; format: functional
[33] = molecular target: Proto-oncogene tyrosine-protein kinase Src (Homo sapiens, UniProt P12931); assay: Inhibition of Src receptor (unknown origin) using biotinylated poly-Glu-Tyr (4:1) as substrate preincubated for 5 mins measured after 12 hrs
[34] = molecular target: T1, RAF proto-oncogene serine/threonine-protein kinase; assay: Binding affinity to CRAF (unknown origin) assessed as equilibrium dissociation constant by surface plasmon resonance analysis
[35] = molecular target: Mitogen-activated protein kinase 8 (Homo sapiens, UniProt P45983); assay: Inhibition of C-terminal FLAG-tagged JNK1 (unknown origin) expressed in baculovirus system using c-jun as substrate after 60 mins
[36] = system: Rattus norvegicus; assay: Toxicity in F344 nude rat xenografted with human HMVII cells expressing NRAS Q61K/BRAF G469V mutant assessed as body weight change at 9.7 mg/kg, po bid for 14 days; format: organism-based; parameters: dose 9.7 mg/kg, route oral; details: in vivo, 336 h
[37] = molecular target: Mast/stem cell growth factor receptor Kit (Homo sapiens, UniProt P10721); assay: Inhibition of c-Kit receptor (unknown origin) using biotinylated poly-Glu-Tyr (4:1) as substrate preincubated for 5 mins measured after 12 hrs
[38] = molecular target: Cyclin-dependent kinase 1/cyclin B1 (Homo sapiens, UniProt P06493); assay: Inhibition of CDK1/CycB (unknown origin) using histone H1 as substrate after 20 mins; format: protein-complex assay
[39] = molecular target: Dual specificity mitogen-activated protein kinase kinase 1 (Homo sapiens, UniProt Q02750); assay: Inhibition of N-terminal GST-tagged MEK1 (unknown origin) expressed in 293 cells using GST-ERK1(K71A) as substrate after 20 mins
Dual specificity mitogen-activated protein kinase kinase 1, sequence (Q02750 whole entry): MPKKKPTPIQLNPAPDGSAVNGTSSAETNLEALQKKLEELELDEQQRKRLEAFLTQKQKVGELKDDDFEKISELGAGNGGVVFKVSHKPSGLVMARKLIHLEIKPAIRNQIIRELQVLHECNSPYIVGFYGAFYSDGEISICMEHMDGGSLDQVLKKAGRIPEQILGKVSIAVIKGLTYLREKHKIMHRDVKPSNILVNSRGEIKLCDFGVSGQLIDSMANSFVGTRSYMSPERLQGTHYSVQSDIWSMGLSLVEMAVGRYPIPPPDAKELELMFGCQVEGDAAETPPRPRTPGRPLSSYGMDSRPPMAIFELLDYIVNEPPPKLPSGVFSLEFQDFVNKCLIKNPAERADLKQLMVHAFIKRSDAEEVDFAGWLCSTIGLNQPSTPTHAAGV

T1 sequence (P04049 whole entry): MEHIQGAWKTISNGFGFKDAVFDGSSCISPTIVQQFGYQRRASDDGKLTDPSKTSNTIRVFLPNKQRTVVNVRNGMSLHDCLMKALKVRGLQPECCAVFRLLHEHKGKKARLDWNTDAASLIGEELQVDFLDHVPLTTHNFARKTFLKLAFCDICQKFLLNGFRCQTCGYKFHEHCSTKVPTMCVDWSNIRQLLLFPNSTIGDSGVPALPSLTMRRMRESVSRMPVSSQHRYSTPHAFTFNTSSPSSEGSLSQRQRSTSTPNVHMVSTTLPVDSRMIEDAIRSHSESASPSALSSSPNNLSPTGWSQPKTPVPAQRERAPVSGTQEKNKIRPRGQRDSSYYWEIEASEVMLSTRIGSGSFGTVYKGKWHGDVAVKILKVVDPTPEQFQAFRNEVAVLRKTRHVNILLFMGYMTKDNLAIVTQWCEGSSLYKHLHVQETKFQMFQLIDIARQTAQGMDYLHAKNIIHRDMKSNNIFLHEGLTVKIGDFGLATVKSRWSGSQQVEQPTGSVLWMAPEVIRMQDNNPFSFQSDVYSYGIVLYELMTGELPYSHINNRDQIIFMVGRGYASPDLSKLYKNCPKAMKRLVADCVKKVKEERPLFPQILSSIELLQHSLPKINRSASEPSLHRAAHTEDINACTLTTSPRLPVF
Mitogen-activated protein kinase 3, sequence (P27361 whole entry): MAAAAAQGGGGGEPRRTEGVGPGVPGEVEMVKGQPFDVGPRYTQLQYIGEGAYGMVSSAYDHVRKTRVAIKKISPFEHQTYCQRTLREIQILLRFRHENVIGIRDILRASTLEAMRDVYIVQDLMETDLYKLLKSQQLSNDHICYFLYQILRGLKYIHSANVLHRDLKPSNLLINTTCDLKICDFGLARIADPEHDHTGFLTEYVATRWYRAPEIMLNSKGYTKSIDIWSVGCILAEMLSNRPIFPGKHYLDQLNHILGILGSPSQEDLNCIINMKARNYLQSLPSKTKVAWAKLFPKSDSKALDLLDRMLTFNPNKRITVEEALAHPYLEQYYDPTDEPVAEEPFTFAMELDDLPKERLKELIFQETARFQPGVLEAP
Mast/stem cell growth factor receptor Kit, sequence (P10721 whole entry): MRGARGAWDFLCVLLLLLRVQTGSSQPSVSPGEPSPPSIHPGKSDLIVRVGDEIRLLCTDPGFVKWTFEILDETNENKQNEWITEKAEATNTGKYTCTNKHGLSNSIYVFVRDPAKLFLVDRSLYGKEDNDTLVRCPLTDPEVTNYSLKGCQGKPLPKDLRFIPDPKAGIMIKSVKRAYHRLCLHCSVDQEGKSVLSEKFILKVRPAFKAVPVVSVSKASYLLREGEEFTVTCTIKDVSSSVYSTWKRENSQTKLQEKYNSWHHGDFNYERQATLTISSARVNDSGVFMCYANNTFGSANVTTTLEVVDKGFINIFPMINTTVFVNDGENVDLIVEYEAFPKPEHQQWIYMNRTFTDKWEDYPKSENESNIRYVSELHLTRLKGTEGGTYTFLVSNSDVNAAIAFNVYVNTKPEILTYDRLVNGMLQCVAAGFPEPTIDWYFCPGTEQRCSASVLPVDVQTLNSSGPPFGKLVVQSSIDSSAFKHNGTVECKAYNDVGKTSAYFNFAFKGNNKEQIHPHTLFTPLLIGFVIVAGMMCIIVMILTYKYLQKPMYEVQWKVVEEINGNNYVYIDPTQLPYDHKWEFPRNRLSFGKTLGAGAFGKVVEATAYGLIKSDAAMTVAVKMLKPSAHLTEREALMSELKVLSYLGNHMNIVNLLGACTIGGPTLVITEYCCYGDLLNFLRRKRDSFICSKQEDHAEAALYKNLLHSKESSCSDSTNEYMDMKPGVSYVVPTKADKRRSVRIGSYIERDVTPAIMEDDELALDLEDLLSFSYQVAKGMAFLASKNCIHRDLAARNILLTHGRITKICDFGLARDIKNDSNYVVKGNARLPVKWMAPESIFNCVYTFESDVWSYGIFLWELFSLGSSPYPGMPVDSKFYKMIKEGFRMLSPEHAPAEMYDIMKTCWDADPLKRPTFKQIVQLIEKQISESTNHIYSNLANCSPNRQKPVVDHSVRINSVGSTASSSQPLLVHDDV
Mitogen-activated protein kinase 14, sequence (Q16539 whole entry): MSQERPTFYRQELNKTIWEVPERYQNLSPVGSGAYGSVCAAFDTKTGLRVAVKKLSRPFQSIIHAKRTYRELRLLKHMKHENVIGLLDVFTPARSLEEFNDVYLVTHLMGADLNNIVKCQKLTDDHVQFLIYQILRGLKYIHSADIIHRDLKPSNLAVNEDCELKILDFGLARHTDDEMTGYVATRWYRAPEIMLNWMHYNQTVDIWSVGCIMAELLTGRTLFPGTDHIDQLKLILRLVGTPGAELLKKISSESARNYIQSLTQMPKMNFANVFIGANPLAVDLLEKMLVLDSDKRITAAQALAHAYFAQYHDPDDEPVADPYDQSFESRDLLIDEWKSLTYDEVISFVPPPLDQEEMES
Mitogen-activated protein kinase 8, sequence (P45983 whole entry): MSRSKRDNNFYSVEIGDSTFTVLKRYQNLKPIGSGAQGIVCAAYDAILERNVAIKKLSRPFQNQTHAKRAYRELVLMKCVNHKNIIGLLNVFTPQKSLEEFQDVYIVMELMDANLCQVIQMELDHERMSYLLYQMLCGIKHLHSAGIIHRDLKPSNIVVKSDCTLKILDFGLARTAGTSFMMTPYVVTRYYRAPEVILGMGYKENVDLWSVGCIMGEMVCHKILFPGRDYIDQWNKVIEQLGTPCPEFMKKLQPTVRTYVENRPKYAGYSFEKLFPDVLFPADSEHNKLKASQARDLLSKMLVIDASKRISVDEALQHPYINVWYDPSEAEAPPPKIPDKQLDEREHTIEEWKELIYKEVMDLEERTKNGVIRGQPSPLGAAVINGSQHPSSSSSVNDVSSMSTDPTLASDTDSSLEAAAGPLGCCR
Serine/threonine-protein kinase B-raf (Homo sapiens, UniProt P15056), sequence (P15056 whole entry): as the sequence (P15056 whole entry V600E) above, with E600V counted along it

Q: What does the source list for N#Cc1c(Oc2ccc(F)c(NC(=O)Cc3cccc(C(F)(F)F)c3)c2)ccc2nc(NC(=O)C3CC3)sc12?
A: IC50 [1]: 50 nM; T/C [2]: 62.2%; MRT [3]: 7.12 h; AUC(0-t) at 24 h [4]: 2510 ng·h/mL; IC50 [5]: 8.1 nM; inhibition ([5]; TDE = time-dependent effect): tde; IC50 [6]: 66 nM; MRT [7]: 4.69 h; AUC(0-t) at 24 h [8]: 15500 ng·h/mL; IC50 [9]: 600 nM; IC50 [10]: 580 nM; IC50 [11]: 1.4 nM; Kd [12]: 1.6 nM; Ratio IC50 [13]: 67; Vd [14]: 1.87 L/kg; AUC [15]: 2480 ng·h/mL; IC50 [16]: 75 nM; IC50 [17]: 49 nM; IC50 [18]: 1.5 nM; IC50 [19]: 2.2 nM; T/C [20]: 0%; IC50 [21]: > 10000 nM; IC50 [22]: 15 nM; IC50 [23]: 3.3 nM; Activity [24]: 11.2 g; Activity [25]: 9.3 g; T/C [26]: 52%; bioavailability [27]: 108%; AUC(0-t) at 24 h [28]: 32500 ng·h/mL; IC50 [29]: 16 nM; T1/2 [30]: 2.15 h; IC50 [31]: 5 nM; T/C [32]: -2.1%; IC50 [33]: > 10000 nM; Kd [34]: 0.52 nM; IC50 [35]: > 10000 nM; Activity [36]: 9.8 g; IC50 [37]: > 10000 nM; IC50 [38]: 790 nM; IC50 [39]: 3700 nM
